This note sets out measurements from patent US20250346606A1, “CAMPTOTHECIN COMPOUND, PREPARATION METHOD THEREFOR, AND APPLICATION THEREOF” (SICHUAN KELUN-BIOTECH BIOPHARMACEUTICAL CO., LTD., priority 2021, published 2025).

Structures are written as SMILES. pIC50: −log10 of the molar value. Like-named read-outs stand apart in the source and are kept apart here.

The test system of assay [1] is Jeko-1 cells. In words: Inhibitory effect of compounds on Jeko-1 cell proliferation. The assay is classed as cell-based, Human. The conditions noted are these: read-out: IC50, inhibitory activity on Jeko-1 cell proliferation. Here is the method:
(1) Cell plating: First, tumor cells Jeko-1 were cultured in corresponding medium, then digested with trypsin, centrifuged, resuspended, and counted, and the cells were adjusted to an appropriate concentration for plating.
(§1) Co-incubation of the compound of the present disclosure and tumor cells: after the cells adhered to the wall, the medium was removed, and the diluted bioactive molecule (the compound of the present disclosure) was added to the wells of the above plate, and incubated for 72 h.
(§2) In vitro cell viability detection: After the incubation, 50 μL of Cell Counting-Lite™ 2.0 reagent (Vazyme/Novazyme) was added to each well, shaken and mixed well in the dark, reacted for 10 minutes, and then the detection was carried out with a microplate reader (manufacturer: BMG, Model: PHERAStar-FS) for reading. The background RLU was obtained by using cell-free medium (with Cell Counting-Lite™), and the vehicle RLU was obtained by using cell-containing medium (with Cell Counting-Lite™). Cell inhibition rate=1−(sample RLU−background RLU)/(solvent RLU−background RLU)×100%. According to the four-parameter model fitting curve, the half maximal inhibitory concentration (IC50) of the compound was calculated, and the detection results were shown in Table 20.

Assay [2] concerns NCI-N87 cells. In words: Inhibitory effect of compounds on NCI-N87 cell proliferation. The class given is cell-based, Human. How it is done: (1) Cell plating: First, tumor cells NCI-N87 were cultured in corresponding medium, then digested with trypsin, centrifuged, resuspended, and counted, and the cells were adjusted to an appropriate concentration for plating.
as §1
as §2, with “12.” for “20.”

Assay [3] concerns HT29 cells. The assay is described as follows: Inhibitory effect of compounds on HT29 cell proliferation. The class given is cell-based, Human. The conditions noted are these: read-out: IC50, inhibitory activity on HT29 cell proliferation. How it is done:
(1) Cell plating: First, tumor cells HT29 were cultured in corresponding medium, then digested with trypsin, centrifuged, resuspended, and counted, and the cells were adjusted to an appropriate concentration for plating.
as §1
as §2, with “2.” for “20.”

Assay [4] has as its system NCI-H358 cells. The assay is described as follows: Inhibitory effect of compounds on NCI-H358 cell proliferation. The class given is cell-based, Human. How it is done: (1) Cell plating: First, tumor cells NCI-H358 were cultured in corresponding medium, then digested with trypsin, centrifuged, resuspended, and counted, and the cells were adjusted to an appropriate concentration for plating.
as §1
as §2, with “10.” for “20.”

In assay [5] the test system is HCC1806 cells. In words: Inhibitory effect of compounds on HCC1806 cell proliferation. The class given is cell-based, Human. How it is done:
(1) Cell plating: First, tumor cells HCC1806 were cultured in corresponding medium, then digested with trypsin, centrifuged, resuspended, and counted, and the cells were adjusted to an appropriate concentration for plating.
as §1
as §2, with “6.” for “20.”

Assay [6] concerns MDA-MB-453 cells. In words: Inhibitory effect of compounds on MDA-MB-453 cell proliferation. The assay is classed as cell-based. The conditions noted are these: MDA-MB-453 human breast cancer cells, 72 h incubation, Cell Counting-Lite 2.0. How it is done: (1) Cell plating: First, tumor cells MDA-MB-453 were cultured in corresponding medium, then digested with trypsin, centrifuged, resuspended, and counted, and the cells were adjusted to an appropriate concentration for plating.
as §1
as §2, with “22.” for “20.”

The mark [7] stands for this setting: Homo sapiens, NCI-N87, 72 h, read-out: IC50, inhibitory activity on NCI-N87 cell proliferation, NCI-N87 human gastric cancer cells, 72 h incubation, Cell Counting-Lite 2.0.
Where [8] appears, read: Homo sapiens, NCI-H358, 72 h, read-out: IC50, inhibitory activity on NCI-H358 cell proliferation, NCI-H358 human non-small cell lung cancer cells, 72 h incubation, Cell Counting-Lite 2.0.
Where [9] appears, read: Homo sapiens, HCC1806, 72 h, read-out: IC50, inhibitory activity on HCC1806 cell proliferation, HCC1806 human breast squamous carcinoma cells, 72 h incubation, Cell Counting-Lite 2.0.
The mark [10] stands for this setting: NCI-H358 human non-small cell lung cancer cells, 72 h incubation, Cell Counting-Lite 2.0, read-out: IC50, inhibitory activity on NCI-H358 cell proliferation.
[11] abbreviates: Jeko-1 human mantle cell lymphoma cells, 72 h incubation, Cell Counting-Lite 2.0.
Where [12] appears, read: NCI-N87 human gastric cancer cells, 72 h incubation, Cell Counting-Lite 2.0, read-out: IC50, inhibitory activity on NCI-N87 cell proliferation.
Setting [13] is: HCC1806 human breast squamous carcinoma cells, 72 h incubation, Cell Counting-Lite 2.0, read-out: IC50, inhibitory activity on HCC1806 cell proliferation.

Turning to `CC[C@@]1(O)C(=O)OCc2c1cc1n(c2=O)Cc2c-1nc1cc(F)c(C)c3c1c2[C@@H](CN)CC3` (single isomer, unassigned) [Example 13 (5-7-A)], the pIC50 in assay [1] (Homo sapiens, JeKo-1, 72 h) is 9.80; in assay [2] (setting [7]) it was 8.22; in assay [3] (Homo sapiens, HT-29, 72 h), 8.50.

As to `CC[C@@]1(O)C(=O)OCc2c1cc1n(c2=O)Cc2c-1nc1cc(F)c(Cl)c3c1c2[C@H](NC[C@H](C)O)CC3` (single isomer, unassigned) [Example 17 (3-7-B)], the pIC50 in assay [4] (setting [8]) was 7.65; in assay [2] (setting [7]), 8.34; in assay [5] (setting [9]), 8.71; in assay [6] (Homo sapiens, MDA-MB-453, 72 h), 8.31.

`CC[C@@]1(O)C(=O)OCc2c1cc1n(c2=O)Cc2c-1nc1cc(F)c(Cl)c3c1c2[C@@H](NC[C@@H](C)O)CC3` (single isomer, unassigned) [Example 25 (3-26-A)]: the pIC50 in assay [4] (setting [8]) was 7.50; in assay [2] (setting [7]), 8.91; in assay [5] (setting [9]) it was 8.90; in assay [6] (Homo sapiens, MDA-MB-453, 72 h) it was 8.40.

Turning to `C=C[C@H](O)C(=O)N[C@H]1CCc2c(C)c(F)cc3nc4c(c1c23)Cn1c-4cc2c(c1=O)COC(=O)[C@]2(O)CC` [Example 2 (1-7-A)], the pIC50 in assay [4] (setting [10]) was 7.94; in assay [1] (setting [11]), 9.82; in assay [2] (setting [12]) it was 8.57.

For `C=C[C@@H](O)C(=O)N[C@H]1CCc2c(C)c(F)cc3nc4c(c1c23)Cn1c-4cc2c(c1=O)COC(=O)[C@]2(O)CC` [Example 2 (1-7-B)], the pIC50 in assay [4] (setting [10]) was 7.29; in assay [1] (setting [11]), 9.18; in assay [2] (setting [12]) it was 8.26.

For the compound `CC[C@@]1(O)C(=O)OCc2c1cc1n(c2=O)Cc2c-1nc1cc(F)c(Cl)c3c1c2[C@H](NC(=O)CO)CC3` [Example 9 (3-4-B), N-((1R,9S)-4-Chloro-9-ethyl-5-fluoro-9-hydroxy-10,13-dioxo-2,3,9,10,13,15-hexahydro-1H, 12H-benzo[de]pyrano[3′,4:6,7]indolizino[1,2-b]quinolin-1-yl)-2-hydroxyacetamide], the pIC50 is 9.82 in assay [1] (setting [11]); 8.19 in assay [2] (setting [12]); 8.30 in assay [3] (HT29 human colon cancer cells, 72 h incubation, Cell Counting-Lite 2.0).

On to `CC[C@@]1(O)C(=O)OCc2c1cc1n(c2=O)Cc2c-1nc1cc(F)c(Cl)c3c1c2[C@@H](NC(=O)C1(O)CC1)CC3` [Example 18 (3-17-A)], for which the pIC50 was 7.87 in assay [4] (setting [10]), 8.52 in assay [2] (setting [12]), 8.77 in assay [5] (setting [13]) and 8.48 in assay [6].

Take `CC[C@@]1(O)C(=O)OCc2c1cc1n(c2=O)Cc2c-1nc1cc(F)c(Cl)c3c1c2[C@H](NC(=O)C1(O)CC1)CC3` [Example 18 (3-17-B)]: the pIC50 is 7.43 in assay [4] (setting [10]), 8.38 in assay [2] (setting [12]), 8.65 in assay [5] (setting [13]) and 8.21 in assay [6].

Take `CC[C@@]1(O)C(=O)OCc2c1cc1n(c2=O)Cc2c-1nc1cc(F)c(C3CC3)c3c1c2[C@@H](NC(=O)CO)CC3` [Example 19 (5-22-A), N-((1S,9S)-4-cyclopropyl-9-ethyl-5-fluoro-9-hydroxy-10,13-dioxo-1,2,3,9,10,12,13,15-tetrahydrobenzo[de]pyrano[3′,4′:6,7]indolizino[1,2-b]quinolin-1-yl)-2-hydroxyacetamide]: the pIC50 in assay [4] (setting [10]) is 7.52; in assay [2] (setting [12]) it was 8.47; in assay [5] (setting [13]) it was 8.59; in assay [6], 8.13.

For `CC[C@@]1(O)C(=O)OCc2c1cc1n(c2=O)Cc2c-1nc1cc(F)c(C3CC3)c3c1c2[C@H](NC(=O)CO)CC3` [Example 19 (5-22-B), N-((1R,9S)-4-cyclopropyl-9-ethyl-5-fluoro-9-hydroxy-10,13-dioxo-1,2,3,9,10,12,13,15-tetrahydrobenzo[de]pyrano[3′,4′:6,7]indolizino[1,2-b]quinolin-1-yl)-2-hydroxyacetamide], the pIC50 was 7.21 in assay [4] (setting [10]), 8.26 in assay [2] (setting [12]), 8.43 in assay [5] (setting [13]) and 8.25 in assay [6].

Take `CC[C@@]1(O)C(=O)OCc2c1cc1n(c2=O)Cc2c-1nc1cc(Cl)c(C)c3c1c2[C@@H](NC[C@@H](C)O)CC3` [Example 24 (2-27-A), (2R)—N-((1S,9S)-5-Chloro-9-ethyl-9-hydroxy-4-methyl-10,13-dioxo-2,3,9,10,13,15-hexahydro-1H,12H-benzo[de]pyrano[3′,4:6,7]indolizino[1,2-b]quinolin-1-yl)-2-hydroxypropylamine]: the pIC50 in assay [4] (setting [10]) was 7.25; in assay [2] (setting [12]), 8.08; in assay [5] (setting [13]), 8.34; in assay [6] it was 7.93.
